≈ marks a conversion by molar mass, not a printed value.
What was measured:
MCF7 cells [1] = test: Seahorse XF96 metabolic flux: oxygen consumption rate (OCR), ATP; assay type: cell-based, human; details: for rank order potency to reduce maximal respiration and ATP production: MCF7, top 10 hits; for mitochondrial oxygen-consumption: MCF7, 72 hours treatment
From the text: (§1) The present approach further involves methods of functional validation at step S105, during which a compound's function as a mitochondrial inhibitor may be confirmed. A number of methods may be used for functional validation, including, for example, metabolic flux analysis, mammosphere assays, viability assays, and antibiotic (anti-bacterial and/or anti-fungal) activity. For example, the inventors determined extracellular acidification rates (ECAR) and real-time oxygen consumption rates (OCR) for MCF7 cells using the Seahorse Extracellular Flux (XF96) analyzer (Seahorse Bioscience, MA, USA). MCF7 cells were maintained in DMEM supplemented with 10% FBS (fetal bovine serum), 2 mM GlutaMAX, and 1% Pen-Strep. 5,000 cells per well were seeded into XF96-well cell culture plates, and incubated overnight at 37° C. in a 5% CO2 humidified atmosphere. After 24 hours, cells were treated with selected compounds showing ATP-depletion without prominent cytotoxicity at various concentrations (or vehicle alone). After 72 hours of treatment, cells were washed in pre-warmed XF assay media (for OCR measurement, XF assay media was supplemented with 10 mM glucose, 1 mM Pyruvate, 2 mM L-glutamine and adjusted at pH 7.4). Cells were maintained in 175 μL/well of XF assay media at 37° C. in a non-CO2 incubator for 1 hour. During incubation, 25 μL of 80 mM glucose, 9 μM oligomycin, 1M 2-deoxyglucose (for ECAR measurement) and 25 μL of 10 μM oligomycin, 9 μM FCCP, 10 μM rotenone, 10 μM antimycin A (for OCR measurement) in XF assay media was loaded into the injection ports of the XFe-96 sensor cartridge. During the experiment, the instrument injected these inhibitors into the wells at a given time point, while ECAR/OCR was measured continuously. ECAR and OCR measurements were normalized by protein content (using the Sulphorhodamine B assay). Data sets were analyzed by XFe-96 software, using one-way ANOVA and Student's t-test calculations. All experiments were performed in triplicate, and results validated the mitochondrial inhibition effects of mitoriboscin compounds described herein. It should be appreciated that numerous methods are known for functional validation, and that persons of skill in the art may select one or more depending on the validation needs (e.g., other assays that measure or approximate mitochondrial function). The present approach involves methods of function validation of mitoriboscin compounds. For example, the inventors assessed functional validation of three candidates using the Seahorse Analyzer, which quantitatively measures oxygen consumption rate (OCR) and extracellular acidification rate (ECAR). OCR is a surrogate marker for OXPHOS and ECAR is a surrogate marker for glycolysis and L-lactate production.

MRSA ATCC 43300 = test: MIC by broth dilution method; assay type: cell-based, Methicillin-resistant Staphylococcus aureus
Protocol: (§2) The minimal inhibitory concentration (MIC) of the antibacterial compounds may be determined using the broth dilution method, according to CLSI guidelines. Test compound solutions (or antibiotic solutions used as positive controls) were diluted, serially, with MHB medium. Then, the suspensions of the microorganisms, prepared from overnight cultures of bacteria in the MHB medium, at a concentration of 10^6 CFU/ml, were added to each dilution in a 1:1 ratio. McFarland standards were used as a reference to adjust the turbidity of microorganism suspensions. Growth (or lack thereof) of the microorganisms was determined after incubation for 24 hours at 37° C. by turbidimetry (wavelength of 600 nm). MIC 50 and MIC 99 are defined as the minimum inhibitory concentration of the compound required for 50% and 99% inhibition of bacterial growth. […] The susceptibility test by measurement of MIC was performed in triplicate and repeated three times independently. Statistical significance was determined using the Student's t-test and values of less than 0.05 were considered significant.

MCF7 cells [2] = test: Mammosphere formation; assay type: cell-based, human; details: MCF7, 5 μM
From the text: The present approach involves methods of testing compounds, and in particular mitoriboscins, for anti-cancer properties. As discussed above, vHTS and computational chemistry may be used to identify candidate mitochondrial inhibitors. Those candidates may be tested for specific anti-cancer properties. For examples, the inventors compared seven candidate compounds in parallel for their ability to inhibit mammosphere formation in MCF7 cells. […] For example, 23/G4 (Group 1) reduced mammosphere formation by 50% at this concentration. Similarly, 24/F9 (Group 2) and 24/D4 (Group 3), both reduced mammosphere formation by ˜90%.

P. auriginosa ATCC 27853 = test: MIC by broth dilution method; assay type: cell-based; details: P. auriginosa ATCC 27853, 24 hours at 37° C.
Protocol: as §2, with “nm).” for “nm). MIC 50 and MIC 99 are defined as the minimum inhibitory concentration of the compound required for 50% and 99% inhibition of bacterial growth.”, “independently.” for “independently. Statistical significance was determined using the Student's t-test and values of less than 0.05 were considered significant.”

[3] = test system: Strept. pyogenes ATCC 19615; test: MIC by broth dilution method; assay type: cell-based; details: Strept. pyogenes ATCC 19615, 24 hours at 37° C.
Protocol: as §2, with “nm).” for “nm). MIC 50 and MIC 99 are defined as the minimum inhibitory concentration of the compound required for 50% and 99% inhibition of bacterial growth.”, “independently.” for “independently. Statistical significance was determined using the Student's t-test and values of less than 0.05 were considered significant.”

K. pneumoniae ATCC 13883 = test: MIC by broth dilution method; assay type: cell-based; details: K. pneumoniae ATCC 13883, 24 hours at 37° C.
Protocol: as §2, with “nm).” for “nm). MIC 50 and MIC 99 are defined as the minimum inhibitory concentration of the compound required for 50% and 99% inhibition of bacterial growth.”, “independently.” for “independently. Statistical significance was determined using the Student's t-test and values of less than 0.05 were considered significant.”

MCF7 cells [4] = test: Seahorse XF96 metabolic flux: extracellular acidification rate (ECAR), glycolysis; assay type: cell-based, human
From the text: as §1, with “ECAR and OCR measurements were normalized by protein content (using the Sulphorhodamine B assay).” left out, “All experiments were performed in triplicate, and results validated the mitochondrial inhibition effects of mitoriboscin compounds described herein. It should be appreciated that numerous methods are known for functional validation, and that persons of skill in the art may select one or more depending on the validation needs (e.g., other assays that measure or approximate mitochondrial function). The present approach involves methods of function validation of mitoriboscin compounds.” left out, “OCR is a surrogate marker for OXPHOS and ECAR is a surrogate marker for glycolysis and L-lactate production.” left out

[5] = test system: normal human fibroblasts (hTERT-BJ1 cells); test: Cell viability of normal fibroblasts; assay type: cell-based; details: 5 μM
Protocol: (§3) The present approach includes methods of confirming cell viability. Persons of skill in the art may select one or more methods for confirming cell viability suitable for the particular embodiment. The inventors initially used the Sulphorhodamine (SRB) assay, which is based on the measurement of cellular protein content. After treatment for 72 hours in 96-well plates, cells were fixed with 10% trichloroacetic acid (TCA) for 1 hour in the cold room, and were dried overnight at room temperature. Then, cells were incubated with SRB for 15 min, washed twice with 1% acetic acid, and air dried for at least 1 hour. Finally, the protein-bound dye was dissolved in a 10 mM Tris, pH 8.8 solution and read using the plate reader at 540-nm. Using the SRB assay, the inventors selected only the compounds depleting ATP levels without prominent cytotoxicity for further analysis. Prominent cytotoxicity was defined as fewer than 30% of cells still on the plate. Of course, embodiments employing other cell viability confirmation methodology may select compounds for further analysis based on other considerations as may be known in the art.
(§4) Based on this analysis, the inventors assessed the functional effects of the three candidates on overall viability in MCF7 cell monolayers and normal human fibroblasts (hTERT-BJ1 cells) (FIG. 6). […]

MCF7 cell monolayers = test: Cell viability of MCF7 cell monolayers; assay type: cell-based, human
Protocol: as §3, §4

## CN1CCCN(C2CCN(Cc3cc(Cl)ccc3OCc3ccccc3)CCC2O)CC1 (centres unmarked) [24/H6]
MCF7 cells [1]; FIG. 10
  rank order potency to reduce maximal respiration and ATP production: top 6

## CN(C)C1CC2(CCN(Cc3cc(Cl)ccc3OCc3ccccc3)CC2)OCC1(C)O (centres unmarked) [24/H9]
MCF7 cells [1]; FIG. 10
  rank order potency to reduce maximal respiration and ATP production: top 6

## CN(C)Cc1cccc(C2CCCN2Cc2ccccc2OCc2cccc(F)c2)n1 (centres unmarked) [25/B3]
MCF7 cells [1]; FIG. 10
  rank order potency to reduce maximal respiration and ATP production: top 6

## CC1(C)S[C@@H]2[C@H](NC(=O)[C@H](N)c3ccc(O)cc3)C(=O)N2[C@H]1C(=O)O [AMOXICILLIN, reference compound]
MRSA ATCC 43300
  sensitivity of MRSA: resistant

## CCCc1ccc(OCc2ccccc2)c(CN2CCC3(CC2)CC(N(C)C)C(C)(O)CO3)c1 (centres unmarked) [24/D4]
MCF7 cells [2]
  reduction of mammosphere formation: ~90%
P. auriginosa ATCC 27853
  MIC 50%: 16 µg/mL (≈ 34.3 µM)
  MIC 99%: 32 µg/mL (≈ 68.6 µM)
[3]
  MIC 50%: 16 µg/mL (≈ 34.3 µM)
  MIC 99%: 32 µg/mL (≈ 68.6 µM)
K. pneumoniae ATCC 13883
  MIC 50%: 16 µg/mL (≈ 34.3 µM)
  MIC 99%: 32 µg/mL (≈ 68.6 µM)
MCF7 cells [4]
  effect on glycolysis: suppressed
MRSA ATCC 43300
  sensitivity of MRSA: sensitive
MCF7 cells [1]
  mitochondrial oxygen-consumption: dose-dependently inhibited

## C[C@H]1c2cccc(O)c2C(=O)C2=C(O)[C@]3(O)C(=O)C(C(N)=O)=C(O)[C@@H](N(C)C)[C@@H]3[C@@H](O)[C@@H]21 [DOXYCYCLINE, reference compound]
P. auriginosa ATCC 27853
  MIC50: 1 µg/mL (≈ 2.25 µM)
  MIC99: 2 µg/mL (≈ 4.5 µM)

## OC1C(NCc2ccccc2)CCCC1Oc1ccccc1Oc1ccc(Cl)cc1 (centres unmarked) [23/G4]
MCF7 cells [2]
  reduction of mammosphere formation: 50%
P. auriginosa ATCC 27853
  MIC 50%: 16 µg/mL (≈ 37.7 µM)
  MIC 99%: 32 µg/mL (≈ 75.5 µM)
[3]
  MIC 50%: 4 µg/mL (≈ 9.44 µM)
  MIC 99%: 8 µg/mL (≈ 18.9 µM)
K. pneumoniae ATCC 13883
  MIC 50%: 16 µg/mL (≈ 37.7 µM)
  MIC 99%: 32 µg/mL (≈ 75.5 µM)
MCF7 cells [4]
  increase in glycolysis rates: more than 1.5 fold
[5]
  effect on viability of hTERT-BJ1 cells: no effect
MCF7 cell monolayers; 500 nM and 2.5 μM
  effect on overall cell viability of MCF7 monolayers: little or no effect
MCF7 cell monolayers; 5 μM
  reduction of viability of MCF7 cells: 70%
MRSA ATCC 43300
  sensitivity of MRSA: sensitive
MCF7 cells [1]; MCF7, 500 nM
  reduction of ATP levels: > 50%
MCF7 cells [1]; MCF7, 2.5 μM
  reduction of ATP levels: ~75%
MCF7 cells [1]; MCF7, 5 μM, FIG. 10
  reduction in ATP levels: greater than 75%
MCF7 cells [1]
  mitochondrial oxygen-consumption: dose-dependently inhibited
MCF7 cells [1]; FIG. 10
  rank order potency to reduce maximal respiration and ATP production: top 6

## OC1C(NCc2ccccc2)CCCC1Oc1ccccc1Oc1cccc(F)c1 (centres unmarked) [23/E9]
MCF7 cells [1]; FIG. 10
  rank order potency to reduce maximal respiration and ATP production: top 6

## CN1CCN(C2CCN(Cc3cc(C(C)(C)C)ccc3OCc3ccccc3)CCC2O)CC1 (centres unmarked) [24/F9]
MCF7 cells [2]
  reduction of mammosphere formation: ~90%
P. auriginosa ATCC 27853
  MIC 50%: >32 µg/mL
  MIC 99%: >64 µg/mL
[3]
  MIC 50%: 32 µg/mL (≈ 68.7 µM)
  MIC 99%: 64 µg/mL (≈ 137 µM)
K. pneumoniae ATCC 13883
  MIC 50%: 32 µg/mL (≈ 68.7 µM)
  MIC 99%: 64 µg/mL (≈ 137 µM)
MCF7 cells [4]
  effect on glycolysis: suppressed
MCF7 cells [1]
  mitochondrial oxygen-consumption: dose-dependently inhibited
MCF7 cells [1]; FIG. 10
  rank order potency to reduce maximal respiration and ATP production: top 6

From patent US11547679B2, “Mitoriboscins: mitochondrial-based therapeutics targeting cancer cells, bacteria and pathogenic yeast” (LUNELLA BIOTECH, INC., priority 2017, dated 2023)
